Measured values: US6011000A, “Compositions for the treatment of blood disorders” (priority 1995, dated 2000)

Key:
[1] = tested on: MCF-7 cells; test: Growth/viability of human mammary carcinoma cells; type: cell-based; conditions: MCF7, 96 h, 4 days, read-out: growth decrease of MCF-7 cells
Method: Human mammary carcinoma cells (MCF-7) were cultured alone (controls) and with arginine butyrate or isobutyramide for 4 days. Viability was assayed by FACS after incubation with a fluorescent dye taken up by viable cells (FIG. 6). Growth was decreased by 50% with isobutyramide at 1.0 mM, about 60% with arginine butyrate at 0.5 mM, and greater than 90% with arginine butyrate at 1.0 mM.

[2] = tested on: anemic baboon; test: In vivo reticulocyte proliferation, globin expression and blood counts in anemic (phlebotomized) baboons
In short: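 Juvenile female baboons kept at 7.0–7.5 g/dl haemoglobin by daily phlebotomy got compounds sequentially, with wash-out until reticulocytes returned to baseline; each animal served as its own control. F-reticulocytes were measured by dual-antibody FACS, and γ/(γ+β) globin synthesis by ³H-leucine labelling and column chromatography. Blood counts were taken, unadjusted for phlebotomy.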

[3] = tested on: fetal globin production; conditions: cited from earlier work
[4] = tested on: BFU-e (burst forming unit-erythroid); test: BFU-e stimulation (colony growth) in cultured peripheral blood mononuclear cells; type: cell-based; conditions: Homo sapiens, PBMC, read-out: more BFU-e colonies from the same number of mononuclear cells than control cultures
Method: Peripheral blood was collected from normal volunteers and patients with anemia due to sickle cell disease or thalassemia Mononuclear cells were isolated by Ficoll-Hypaque (Pharmacia Biotech; Piscataway, N.J.) centrifugation and cultured in Iscove's Modified Dulbecco's Media (IMDM; GIBCO/BRL; Grand Island, N.Y.) supplemented with 10% fetal calf serum, 300 μg/ml glutamine, 3 units/ml IL 3 (Amgen; Thousand Oaks, Calif.), and 2 units/ml erythropoietin (Terry Fox Labs; Vancouver, B.C.). Chemical compounds were obtained from Sigma Chemical (St. Louis, Mo.) or Aldrich Chemical (Milwaukee, Wis.), unless otherwise indicated, and formulated into pharmaceutical compositions by dissolving in aqueous solutions of media or sterile water pH adjusted to about 7.4. Solutions were sterilized by passage at least once through 0.22 micron Nalgene filters and added to cell cultures at final concentrations that are pharmaceutically achievable in vivo (typically between about 0.1 mM to 2.0 MM). Cells were incubated with compounds for between 13-14 days at 37° C. in humidified 5% CO2, and fed and passed, as necessary. Colony growth, proportion of fetal globin-expressing cells and amounts of fetal globin production were assayed. Results are presented in Table 1 as BFU-e stimulation (colony growth). […]

[5] = 1,000 to 1,500 mg/kg/day i.v., 4 days

Structure (SMILES) | inhibition at 500 µM ([1]; 0.5 mM) | inhibition at 1000 µM ([1]; 1.0 mM) | response to treatment ([2]; 1,000 mg/kg for 5 days) | response to treatment ([2]; 2,000 mg/kg for 3 days) | stimulation of fetal globin production [3] | activation at 100 µM [4] | duration of effect after drug was discontinued ([2]; 1,500 mg/kg infused daily, 5 days) | Total hemoglobin ([2]; 1,500 mg/kg infused daily, 5 days (FIG. 7), from 6.8) | reticulocytes ([2]; 1,500 mg/kg infused daily, 5 days, from 1.9%) | white blood cell count ([2]; 1,500 mg/kg infused daily, 5 days, from 6.9) | packed red blood cell volume ([2]; 1,500 mg/kg infused daily, 5 days, from 22%) | Fetal reticulocytes ([2]; 500, 1,000, 1,500 mg/kg infused, after 3 days (FIG. 9), from 12%) | Fetal reticulocytes, increase above baseline [2, 5] | Fetal reticulocytes, increase above baseline (fold) [2, 5] | increase in output of fetal globin production over basal levels [2, 5] | Fetal reticulocytes ([2]; 1,000 to 1,500 mg/kg/day i.v., 4 days, another juvenile baboon, from 2%) | Fetal globin protein synthesis ([2]; 1,000 to 1,500 mg/kg/day i.v., 4 days, from 0%)
CCCC(=O)O [AB, arginine butyrate] | ~60% | > 90% | had not responded | had not responded | effective in stimulating fetal globin production | – | – | – | – | – | – | – | – | – | – | – | –
O=C(O)COc1ccccc1 [PAA, Phenoxyacetic acid] | – | – | – | – | – | 135% | maintained itself for two days after drug was discontinued and slowly declined thereafter | 7.6 grams/dl | 9.2 % of all red blood cells | 9.5 10^3 cells/μl | 25.4% | 27% | 800% | eight-fold | 4,000% | 16% | 5%
